Assay results published in ChEMBL document CHEMBL4619711, “Medicinal Chemistry of Inhibiting RING-Type E3 Ubiquitin Ligases” (J Med Chem, 2020).

Columns and labels:
[1] = molecular target: T1, E3 ubiquitin-protein ligase XIAP (Homo sapiens, UniProt P98170); experiment: Inhibition of XIAP-BIR3 domain (unknown origin)
[2] = Stability in rat blood assessed as parent compound remaining after 4 hrs; assay type: ADME, tissue-based; conditions: read-out: Stability
[3] = Plasma clearance in mouse at iv dose; assay type: ADME, organism-based
[4] = molecular target: T1, E3 ubiquitin-protein ligase XIAP; experiment: Inhibition of XIAP-BIR2 domain (unknown origin)
[5] = Oral bioavailability in mouse; assay type: ADME, organism-based; conditions: in vivo
[6] = molecular target: von Hippel-Lindau disease tumor suppressor (Homo sapiens, UniProt P40337); experiment: Inhibition of VHL (unknown origin) by fluorescence polarization assay
Chain of von Hippel-Lindau disease tumor suppressor (P40337 whole entry): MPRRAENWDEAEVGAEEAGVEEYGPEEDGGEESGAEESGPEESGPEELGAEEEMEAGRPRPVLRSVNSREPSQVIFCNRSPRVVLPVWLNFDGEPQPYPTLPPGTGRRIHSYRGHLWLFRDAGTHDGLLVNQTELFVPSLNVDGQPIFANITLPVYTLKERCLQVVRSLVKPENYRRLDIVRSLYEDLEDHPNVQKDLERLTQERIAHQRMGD

SJSA-1 = experiment: cells; conditions: Homo sapiens

T1 sequence (P98170 whole entry, the tested form may be a part): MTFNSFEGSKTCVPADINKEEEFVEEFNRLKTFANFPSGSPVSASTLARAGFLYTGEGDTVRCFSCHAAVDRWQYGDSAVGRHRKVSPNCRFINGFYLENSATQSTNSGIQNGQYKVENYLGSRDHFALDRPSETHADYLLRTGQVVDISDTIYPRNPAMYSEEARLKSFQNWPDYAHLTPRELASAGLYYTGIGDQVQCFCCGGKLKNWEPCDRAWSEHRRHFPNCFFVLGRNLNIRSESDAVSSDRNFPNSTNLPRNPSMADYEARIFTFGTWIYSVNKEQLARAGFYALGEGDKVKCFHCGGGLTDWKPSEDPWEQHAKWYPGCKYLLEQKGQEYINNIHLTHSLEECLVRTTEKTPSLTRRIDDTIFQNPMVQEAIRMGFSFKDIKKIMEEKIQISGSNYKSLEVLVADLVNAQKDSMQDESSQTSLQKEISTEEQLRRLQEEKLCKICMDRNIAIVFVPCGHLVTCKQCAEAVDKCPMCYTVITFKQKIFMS

| IC50 [1] [nM] | remaining at 4 h [2] [%] | clearance [3] [mL/min/kg] | IC50 [4] [nM] | SMILES | further results |
| --- | --- | --- | --- | --- | --- |
| – | – | 4.3 | – | CN[C@@H](C)C(=O)N[C@@H]1C(=O)N(Cc2c(C)ccc3ccccc23)c2ccc(C#N)cc2N(C(C)=O)[C@H]1C | bioavailability [5]: 28% |
| – | 7 | 521 | – | CN[C@@H](C)C(=O)N[C@H]1COc2ccccc2N(Cc2c(OC)ccc3cc(Br)ccc23)C1=O | – |
| – | – | – | – | Cc1ncsc1-c1ccc(CNC(=O)[C@@H]2C[C@@H](O)CN2C(=O)c2cccc(N)c2C)cc1 | IC50 [6]: 670 nM |
| 3100 | – | 41 | 39 | CN[C@@H](C)C(=O)NC1C(=O)N(Cc2c(C#N)n(-c3ccccc3C#N)c3ccccc23)c2ccccc2CC12CCOCC2 (some centres undefined) | – |
| 24000 | 88 | 60 | 65 | CN[C@@H](C)C(=O)NC1C(=O)N(Cc2c(OC)ccc3cc(Br)ccc23)c2ccccc2CC12CCOCC2 (some centres undefined) | – |
| – | – | – | – | Cc1cc(CC(=O)N2C[C@H](O)C[C@H]2C(=O)NCc2ccccc2Cl)on1 | IC50 [6]: 117000 nM |
| – | – | – | – | CC(C)(C)C[C@@H]1N[C@@H](C(=O)N[C@H]2CC[C@H](O)CC2)[C@H](c2cccc(Cl)c2F)[C@@]12C(=O)Nc1cc(Cl)ccc12 | IC50 (SJSA-1): 92 nM |
| – | – | – | – | CC(C)(C)C[C@@H]1N[C@@H](C(=O)NCCN2CCOCC2)[C@H](c2cccc(Cl)c2F)[C@@]12C(=O)Nc1cc(Cl)ccc12 | IC50 (SJSA-1): 500 nM |

| SMILES | IC50 [1] [nM] | remaining at 4 h [2] [%] | clearance [3] [mL/min/kg] | IC50 [4] [nM] | further results |
| --- | --- | --- | --- | --- | --- |
| CN[C@@H](C)C(=O)N[C@H]1CCc2ccccc2N(Cc2c(OC)ccc3cc(Br)ccc23)C1=O | > 54000 | 40 | 155 | 194 | – |
